# Measurements: US20060189698A1, “Treatment of interstitial cystitis” (priority 2005, published 2006)
# Counter-ions that a name gives are not always drawn.
# System: women with severe chronic bladder pain
# Experiment: Treatment of pelvic pain of bladder origin with dextroamphetamine sulfate (two case reports)
# Format: in vivo, human
# Conditions: for effect of earlier conventional therapy on bladder pain (patient's claim): before dextroamphetamine sulfate
# Text: Treatment of Pelvic Pain of Bladder Origin with Dextroamphetamine Sulfate.
# Two women with severe chronic bladder pain unresponsive to conventional therapy were offered a novel therapy with dextroamphetamine sulfate. In the first patient, the bladder pain started […] in an intermittent manner for six months and then it became daily. The pain was described as a constant feeling of urgency and pain from the urethra to the bladder on walking. They scored an 18 on the pelvic pain and urging/frequency PST. A laparoscopy […] found minimal endometriosis. A cystoscopy was negative as were repeated urine cultures. […] They failed a water load test excreting only 1000 mL urine after standing 4 hours after drinking 1500 mL.
# In the second patient, the pain also began intermittently for six months […]. The pain then began occurring daily and was worse with intercourse and for three days premenstrually. The pain was described as a constant feeling of pressure in the bladder with intense pain after urination. Urine cultures were negative and empirical antibiotics provided no relief. They also failed the water load test.
# Dextroamphetamine sulfate spansules (10 mg) were given twice daily to the first patient and once daily to the second patient.
# [1] = first patient, spansules 10 mg twice daily
# [2] = second patient, spansules 10 mg once daily
Structure (SMILES),effect of earlier conventional therapy on bladder pain (patient's claim) (first patient),"symptom status after being weaned off the drug (first patient, after 1.5 years on medication)",bladder pain response [1],time pain free while remaining on medication [1] [years],"symptoms on interruption and resumption of medication (second patient, forgot their pills on a short trip)",bladder pain response [2],time remaining pain free [2]
CC(C)(C)NC(=O)[C@H]1CC[C@H]2[C@@H]3CC[C@H]4NC(=O)C=C[C@]4(C)[C@H]3CC[C@]12C [finasteride],made it worse,–,–,–,–,–,–
CCN(CC)CC#CCOC(=O)C(O)(c1ccccc1)C1CCCCC1 (centres unmarked) [ditropan],made it worse,–,–,–,–,–,–
"C[C@H](N)Cc1ccccc1 [Dextroamphetamine sulfate, dextroamphetamine sulfate]",–,remained symptom free for six months,pain completely disappeared within two days,1.5,symptoms returned immediately but then disappeared immediately upon resumption of medication,pain decreased immediately and gradually improved daily for one week when it completely disappeared,remained pain free for four months
